Assay results published in ChEMBL document CHEMBL1201862, “PubChem BioAssay data set” (2004).
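Assay format: 96-well plates, 48-hour exposure. At the GI50, growth is halved.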 The source made the active and inactive calls. Rule as the data show it: active = GI50 up to about 1.1 µM and inactive = higher.

How the values were obtained:
Assay in all cases: NCI-60 cell line screen, 48 h
[1] = tested on: 786-0
[2] = tested on: A498
[3] = tested on: A549
[4] = tested on: ACHN
[5] = tested on: CAKI-1
[6] = tested on: CCRF-CEM
[7] = tested on: COLO 205
[8] = tested on: DLD-1
[9] = tested on: DMS-114
[10] = tested on: DMS-273
[11] = tested on: DU-145
[12] = tested on: EKVX
[13] = tested on: HCC 2998
[14] = tested on: HCT-116
[15] = tested on: HCT-15
[16] = tested on: HL-60
[17] = tested on: HOP-18
[18] = tested on: HOP-62
[19] = tested on: HOP-92
[20] = tested on: HT-29
[21] = tested on: Hs-578T
[22] = tested on: IGROV-1
[23] = tested on: K562
[24] = tested on: KM-20L2
[25] = tested on: KM12
[26] = tested on: LOX IMVI
[27] = tested on: LXFL 529
[28] = tested on: M14
[29] = tested on: M19-MEL
[30] = tested on: MCF7
[31] = tested on: MDA-MB-231
[32] = tested on: MDA-MB-435
[33] = tested on: MDA-N
[34] = tested on: MOLT-4
[35] = tested on: Malme-3M
[36] = tested on: NCI-H226
[37] = tested on: NCI-H23
[38] = tested on: NCI-H460
[39] = tested on: NCI-H522
[40] = tested on: NCI/ADR-RES
[41] = tested on: OVCAR-3
[42] = tested on: OVCAR-4
[43] = tested on: OVCAR-5
[44] = tested on: OVCAR-8
[45] = tested on: PC-3
[46] = tested on: RPMI-8226
[47] = tested on: RXF 393
[48] = tested on: SF-268
[49] = tested on: SF-295
[50] = tested on: SF-539
[51] = tested on: SK-MEL-28
[52] = tested on: SK-MEL-2
[53] = tested on: SK-MEL-5
[54] = tested on: SK-OV-3
[55] = tested on: SN12C
[56] = tested on: SNB-19
[57] = tested on: SNB-75
[58] = tested on: SNB-78
[59] = tested on: SR
[60] = tested on: SW-620
[61] = tested on: T47D
[62] = tested on: TK-10
[63] = tested on: U-251
[64] = tested on: UACC-257
[65] = tested on: UACC-62
[66] = tested on: UO-31
[67] = tested on: XF498
[68] = tested on: RXF 631

**Q.** Which results are given for `CCCCOC(=O)N[C@H]1CCc2cc(OC)c(OC)c(OC)c2-c2ccc(SC)c(=O)cc21`?
**A.** GI50 [1]: < 0.01 µM (active); GI50 [2]: < 0.01 µM (active); GI50 [3]: < 0.01 µM (active); GI50 [4]: < 0.0114 µM (active); GI50 [5]: < 0.01 µM (active); GI50 [6]: < 0.01 µM (active); GI50 [7]: < 0.01 µM (active); GI50 [8]: < 0.01 µM (active); GI50 [9]: < 0.01 µM (active); GI50 [10]: < 0.01 µM (active); GI50 [11]: < 0.01 µM (active); GI50 [12]: 16.3 µM (inactive); GI50 [13]: < 0.01 µM (active); GI50 [14]: < 0.01 µM (active); GI50 [15]: < 0.01 µM; GI50 [16]: 0.0123 µM (active); GI50 [17]: 21.4 µM (inactive); GI50 [18]: < 0.01 µM (active); GI50 [19]: < 0.01 µM (active); GI50 [20]: < 0.01 µM (active); GI50 [21]: < 0.01 µM (active); GI50 [22]: 0.0101 µM (active); GI50 [23]: < 0.0369 µM (active); GI50 [24]: < 0.01 µM (active); GI50 [25]: < 0.01 µM (active); GI50 [26]: < 0.01 µM (active); GI50 [27]: < 0.01 µM (active); GI50 [28]: < 0.01 µM (active); GI50 [29]: < 0.01 µM (active); GI50 [30]: < 0.01 µM (active); GI50 [31]: < 0.01 µM (active); GI50 [32]: < 0.01 µM (active); GI50 [33]: < 0.01 µM (active); GI50 [34]: < 0.01 µM (active); GI50 [35]: < 0.01 µM (active); GI50 [36]: 0.0931 µM (active); GI50 [37]: < 0.01 µM (active); GI50 [38]: < 0.01 µM (active); GI50 [39]: < 0.01 µM (active); GI50 [40]: < 0.01 µM (active); GI50 [41]: < 0.01 µM (active); GI50 [42]: 2.2 µM (inactive); GI50 [43]: 0.147 µM (active); GI50 [44]: < 0.01 µM (active); GI50 [45]: 0.0127 µM (active); GI50 [46]: < 0.01 µM (active); GI50 [47]: < 0.031 µM (active); GI50 [48]: < 0.01 µM (active); GI50 [49]: < 0.01 µM (active); GI50 [50]: < 0.01 µM (active); GI50 [51]: 0.752 µM (active); GI50 [52]: < 0.01 µM (active); GI50 [53]: < 0.01 µM (active); GI50 [54]: 0.0303 µM (active); GI50 [55]: < 0.01 µM (active); GI50 [56]: < 0.0153 µM (active); GI50 [57]: < 0.0109 µM (active); GI50 [58]: < 0.01 µM (active); GI50 [59]: < 0.0568 µM (active); GI50 [60]: < 0.01 µM (active); GI50 [61]: 18.1 µM (inactive); GI50 [62]: 0.198 µM (active); GI50 [63]: < 0.01 µM (active); GI50 [64]: < 0.0286 µM (active); GI50 [65]: < 0.01 µM (active); GI50 [66]: < 0.0231 µM (active); GI50 [67]: < 0.01 µM (active)

**Q.** What does the source list for `O=C(Nc1c(O)[nH]c(=S)[nH]c1=O)c1ccccc1F`?
**A.** GI50 [1]: > 100 µM (inactive); GI50 [2]: > 100 µM (inactive); GI50 [3]: > 100 µM (inactive); GI50 [4]: > 100 µM (inactive); GI50 [5]: > 100 µM (inactive); GI50 [6]: > 100 µM (inactive); GI50 [7]: > 100 µM (inactive); GI50 [8]: > 100 µM (inactive); GI50 [9]: > 100 µM (inactive); GI50 [14]: > 100 µM (inactive); GI50 [15]: > 100 µM; GI50 [16]: > 100 µM (inactive); GI50 [17]: > 100 µM (inactive); GI50 [18]: > 100 µM (inactive); GI50 [19]: > 100 µM (inactive); GI50 [20]: > 100 µM (inactive); GI50 [22]: > 100 µM (inactive); GI50 [23]: > 100 µM (inactive); GI50 [24]: > 100 µM (inactive); GI50 [25]: > 100 µM (inactive); GI50 [26]: > 100 µM (inactive); GI50 [27]: > 100 µM (inactive); GI50 [28]: > 100 µM (inactive); GI50 [29]: > 100 µM (inactive); GI50 [34]: > 100 µM (inactive); GI50 [35]: > 100 µM (inactive); GI50 [36]: > 100 µM (inactive); GI50 [37]: > 100 µM (inactive); GI50 [38]: > 100 µM (inactive); GI50 [39]: > 100 µM (inactive); GI50 [41]: > 100 µM (inactive); GI50 [42]: > 100 µM (inactive); GI50 [43]: > 100 µM (inactive); GI50 [44]: > 100 µM (inactive); GI50 [46]: > 100 µM (inactive); GI50 [68]: > 100 µM (inactive); GI50 [48]: > 100 µM (inactive); GI50 [49]: > 100 µM (inactive); GI50 [50]: > 100 µM (inactive); GI50 [51]: > 100 µM (inactive); GI50 [52]: > 100 µM (inactive); GI50 [53]: > 100 µM (inactive); GI50 [54]: > 100 µM (inactive); GI50 [55]: > 100 µM (inactive); GI50 [56]: > 100 µM (inactive); GI50 [57]: > 100 µM (inactive); GI50 [58]: > 100 µM (inactive); GI50 [59]: > 100 µM (inactive); GI50 [60]: > 100 µM (inactive); GI50 [62]: > 100 µM (inactive); GI50 [63]: > 100 µM (inactive); GI50 [64]: > 100 µM (inactive); GI50 [65]: > 100 µM (inactive); GI50 [66]: > 100 µM (inactive)
